Values joined by “and” are separate entries in the source; they are usually repeats but may differ in a detail not shown here. Equal values may be shown once. Read-outs that look alike come from different tables or passages of the source.
Columns and labels:
[1] = system: Influenza B Virus; assay: Antiviral activity against Influenza B virus infection in mice; assay type: in vivo, mouse
Method: Compound 7 was tested therapeutically against Influenza B Virus Infection in Mice. In addition to a saline control Ribavirin, a known antiviral, was utilized for test purposes.
hours previrus inoculation.
^c p < .001 twotailed ttest.

[2] = system: San Angelo Virus; assay type: in vivo, mouse; settings: 200 mg/kg/day; half-daily doses twice a day for 7 days; Time (21 days)
[3] = system: San Angelo Virus; assay type: in vivo, mouse; settings: saline at -24 h, of mice that died
[4] = system: Banzi Virus; assay type: in vivo, mouse; settings: placebo at -24 h, of mice that died
[5] = system: K562 tumor cells; assay: In vitro augmentation of human natural killer cell activity (PBMNC, 51Cr release); assay type: cell-based; settings: Table 22
Method: The natural killer cell activity in human cells was also measured. In conducting these tests peripheral blood mononuculear cells (PBMNC) were isolated on Ficoll-Hypaque gradient, washed three times in Hanks and re-suspended in RPMI-1640 containing 10% human AB serum as described in Rosenberg, S. A.: Journal American Medical Association, 256:3117, 1986 and the above referred to reference to Djeu, et al. Peripheral blood mononuclear cells (PBMNC) from eleven different donors were treated with compound 7 as described in Djeu, et al. as well as Sharma, B., Odom, L. F.: Cancer Immunol. Immunother. 7.93, 1979, and Sharma, B., Odom, L. F.: Cancer Research 44:3258, 1984.
The PBMNC cells were incubated with compound 7 at 37° C. for 20 to 68 hours in a 5% CO2 humid atmosphere and after incubation the cytotoxicity was determined against K562 tumor cells.
^a Peripheral blood mononuclear cells were treated with 0.05 - 0.4 mM
concentration of compound 7 in RPM11640 containing 10% human AB serum for
20 to 68 hours. After the treatment, effector cells were tested against
K562 target cells in 4 hour ^51 Cr release assay as described in
Sharma et al. above. The data shown here represent the maximum response.
K562 target cells in 4 hour ^51 Cr release assay as previously
described above in Sharma et al. The data represent the maximum response.
Other Nucleosides and Nucleotides of the invention were tested for their activity in human natural killer cells […] as per example 33 above.

[6] = system: YAC-1 cells; assay: In vitro potentiation of murine natural killer cell activity (mouse spleen cells, 51Cr release); assay type: cell-based
Method: After incubation the cytotoxicity of the treated and untreated cells was determined against YAC-1 cells.
^a Spleen cells from mice were treated with 0.05 mM concentration of
amino acids and 5 × 10^-5 M Mercaptoethanol. The effector cells
were then tested for their cytotoxic activity against YAC1 target cells i
4 hr ^51 Cr release assay.
^a Spleen cells from mice were incubated in the absence and presence
of various compounds. After incubation, cells were suspended in complete
medium and then their cytotoxic activity was determined against YAC1
target cells as described in the text

[7] = system: YAC-1 cells; assay: as above; assay type: cell-based; settings: Table 21; 0.5 mM

NC(=O)c1ncn([C@@H]2O[C@H](CO)[C@@H](O)[C@H]2O)n1 [Ribavirin]
Mean Survival Time ([1]; 100 mg/kg/day, half-daily doses twice a day for 7 days): 8.0 ± 0.0 days
efficacy against influenza B (in words) ([1]; Table 12): significant antiviral activity
Mean Survival Time [2]: 12.3 ± 2.9 days
Mean Survival Time ([3]; Ribavirin 25 mg/kg/day days 0-6): 8.1 ± 0.7 days
Mean Survival Time ([3]; Ribavirin 50 mg/kg/day days 0-6): 9.0 ± 1.2 days
Mean Survival Time ([4]; Ribavirin 100 mg/kg days 0-6): 8.5 ± 1.0 days
Mean Survival Time ([4]; Ribavirin 200 mg/kg days 0-6): 9.1 ± 0.8 days

Nc1nc2c(sc(=O)n2[C@@H]2O[C@H](CO)[C@@H](O)[C@H]2O)c(=S)[nH]1 [Compound 19, 5-Amino-7(6H)-thioxo-3-β-D-ribofuranoxylthiazolo[4,5-d]pyrimidin-2-one]
% Natural Killer Cell Cytotoxicity ([5]; 0.2 mM): 7%

Nc1nc2c(sc(=O)n2[C@@H]2O[C@@H]3COP(=O)(O)O[C@H]3[C@H]2O)c(=O)[nH]1 [Compound 12]
% Natural Killer Cell Cytotoxicity ([5]; 0.2 mM): 43%
% Natural Killer Cell Cytotoxicity ([5]; 0.4 mM, Monophosphate Ammonium Salt): 39% and 22%

O=c1[nH]c(=O)c2sc(=O)n([C@@H]3O[C@H](CO)[C@@H](O)[C@H]3O)c2[nH]1 [Compound 8, 3-β-D-Ribofuranosylthiazolo[4,5-d]pyrimidine-2,5,7(4H,6H)-trione]
% Natural Killer Cell Cytotoxicity ([5]; 0.2 mM): 5%

Poly I:C [reference compound]
% Natural Killer Cell Cytotoxicity ([6]; C57BL/6J spleen cells, treatment 0 h, compound 7 at 0.05 mM): 18%
% Natural Killer Cell Cytotoxicity ([6]; C57BL/6J spleen cells, treatment 0 h, compound 7 at 0.05 mM, listed as Poly I:): 22%
% Natural Killer Cell Cytotoxicity ([6]; C57BL/6J spleen cells, treatment 20 h, compound 7 at 0.05 mM): 13%
% Natural Killer Cell Cytotoxicity ([6]; C57BL/6J spleen cells, treatment 20 h, compound 7 at 0.05 mM, listed as Poly I:): 6%
% Natural Killer Cell Cytotoxicity ([6]; C57BL/6J spleen cells, treatment 44 h, compound 7 at 0.05 mM): 14%
% Natural Killer Cell Cytotoxicity ([6]; C57BL/6J spleen cells, treatment 44 h, compound 7 at 0.05 mM, listed as Poly I:): 13%
% Natural Killer Cell Cytotoxicity ([6]; CBA/CaJ spleen cells, treatment 0 h, compound 7 at 0.05 mM): 14.5% and 22%
% Natural Killer Cell Cytotoxicity ([6]; CBA/CaJ spleen cells, treatment 20 h, compound 7 at 0.05 mM): 18% and 31%
% Natural Killer Cell Cytotoxicity ([6]; CBA/CaJ spleen cells, treatment 44 h, compound 7 at 0.05 mM): 19% and 9%

O=C(OC[C@H]1O[C@@H](n2c(=O)sc3c(=O)[nH]cnc32)[C@H](OC(=O)c2ccccc2)[C@@H]1OC(=O)c1ccccc1)c1ccccc1 [Compound 9, 3-(2,3,5-Tri-O-benzoyl-β-D-Ribofuranosyl)thiazolo[4,5-d] pyrimidine-2,7(6H)-dione]
% Natural Killer Cell Cytotoxicity ([6]; Table 21, 0.05 mM): 3% and 2% and 0.31%
% Natural Killer Cell Cytotoxicity ([5]; 0.05 mM): 6%
% Natural Killer Cell Cytotoxicity ([5]; 0.2 mM): 43%
% Natural Killer Cell Cytotoxicity [7]: 13% and 6.5%

Nc1nc2c(sc(=S)n2[C@@H]2O[C@H](CO)[C@@H](O)[C@H]2O)c(=O)[nH]1 [Compound 16, 5-Amino-2-thioxo-3-β -D-ribofuranosylthiazolo[4,5-d]pyrimidin-7(6H)-one]
% Natural Killer Cell Cytotoxicity [7]: 38%

From patent publication US5041426A, “Immune system enhancing 3-β-d-ribofuranosylthiazolo[4,5-d]pyridimine nucleosides and nucleotides” (priority 1988, dated 1991)
